Source: ChEMBL document CHEMBL3414511, “Synthesis of a novel class of substituted benzothiophene or benzofuran derivatives as BMP-2 up-regulators and evaluation of the BMP-2-up-regulating effects in vitro and the effects on glucocorticoid-induced osteoporosis in rats” (Eur J Med Chem, 2015)

Test: Upregulation of BMP-2 expression in mouse MC3T3-E1 cells at 4 uM after 24 hrs by luciferase reporter gene assay relative to control
Type: functional, cell-based

Row | SMILES | Activity
1 | COC(=O)c1ccc2cc(C(C)O)sc2c1 (stereo unspecified) | 81.4%
2 | CCOC(=O)c1cc2c(OC)cccc2o1 | 60%
3 | COc1ccc2oc(C(=O)C[S+](C)[O-])cc2c1 (stereo unspecified) | 2.1%
4 | CCOC(=O)c1ccc2cc(C(=O)/C=C/c3ccc(OC)cc3)sc2c1 | 12.2%
5 | COc1ccc2oc(C(=O)CS(C)(=O)=O)cc2c1 | 12.9%
6 | CCOC(=O)c1ccc2cc(C(=O)/C=C/c3ccc(OC)c(OC)c3)sc2c1 | 0.7%
7 | COC(=O)c1ccc2sc(C(C)O)cc2c1 (stereo unspecified) | 56.9%
8 | CCOC(=O)c1ccc2cc(C(=O)/C=C/c3ccccc3Cl)sc2c1 | 39.1%
9 | COc1cccc2oc(C(=O)C[S+](C)[O-])cc12 (stereo unspecified) | 19.6%
10 | CCOC(=O)c1cc2ccc(N(CC)CC)cc2o1 | 44.6%
11 | COc1ccc2cc(C(=O)C[S+](C)[O-])oc2c1 (stereo unspecified) | 7.7%
